Consider 14 compounds from US4612372A, “Tylosin derivatives” (Sanraku Incorporated, priority 1984, dated 1986).

Where only a bound is given, the exact number is not on record here.

Data set [1] is described as follows: Stability against liver homogenate of mice. Format: in vitro ADME, mice (ICB strain). As to conditions: for remaining at 1 h: pH 7.2, mouse liver homogenate supernatant, 37° C., contact 60 minutes, read-out: Residual Intact Compound Rate. How it is done: Liver from ICB strain mice was homogenated with a potter's homogenizer (3000 rpm, 10 minutes) together with a 5-fold amount of 0.1M phosphate buffer (pH 7.2). To the supernatant was added 1 ml of a 500 μg/ml (10% methanolic water) of a specimen. After the mixture was reacted at 37° C. for 1 hour, the reaction mixture was heated at 100° C. for 3 minutes. Then, 1 ml of 0.1M phosphate buffer (pH 9.0) was added thereto and extracted with 1 ml of ethyl acetate. The organic layer was subjected to silica gel thin layer chromatograph y (chloroform/methanol/ammonia=15/1.2/0.1). By a chromatographic scanner (283 nm), a formation ratio of the unchanged substance to the hydrolysate was determined and the formation of the hydrolysate was expressed by percentage.

The subject of data set [2] is infectious diseases of mice. Put plainly: Experiment of treatment for infectious diseases of mice. Format: in vivo.
Data set [3] has as its system esterase. Put plainly: Hydrolysis by esterase in vivo (particularly in liver).
Data set [4] concerns pathogenic microorganisms. Put plainly: Antibacterial activity in general (in words). Format: cell-based.
Data set [5] concerns resistant bacteria. Particulars: U.S. Pat. No. 4,205,163; cited from earlier work.
Data set [6] has as its system resistant bacteria. Particulars: drug-resistant bacteria.

For `CCC1OC(=O)CC(O)C(C)C(OC2OC(C)C(OC3CC(C)(O)C(OC(=O)Cc4ccc(C(C)=O)cc4)C(C)O3)C(N(C)C)C2O)C(CC=O)CC(C)C(=O)C=CC(C)=CC1C` (stereo not shown) [Compound 3], in data set [1], the remaining at 1 h was found to be 95%.

In the case of `CCC1OC(=O)CC(O)C(C)C(OC2OC(C)C(OC3CC(C)(O)C(OC(=O)Cc4ccc(C(C)=O)cc4)C(C)O3)C(N(C)C)C2O)C(CC=O)CC(C)C(=O)C=CC(C)=CC1COC1OC(C)C(O)C(OC)C1OC` (stereo not shown) [Compound 8, 4"-O-(4-Acetylphenylacetyl)tylosin], the remaining at 1 h in data set [1] was less than 95%.

As for `CCC1OC(=O)CC(O)C(C)C(OC2OC(C)C(OC3CC(C)(O)C(OC(=O)Cc4ccccc4)C(C)O3)C(N(C)C)C2O)C(CC=O)CC(C)C(=O)C=CC(C)=CC1COC1OC(C)C(O)C(OC)C1OC` (stereo not shown) [Control 3, reference compound], the remaining at 1 h in data set [1] was less than 95%.

With `CCC1OC(=O)CC(O)C(C)C(OC2OC(C)C(OC3CC(C)(O)C(OC(=O)Cc4ccc(SC)cc4)C(C)O3)C(N(C)C)C2O)C(CC=O)CC(C)C(=O)C=CC(C)=CC1COC1OC(C)C(O)C(OC)C1OC` (stereo not shown) [Compound 2, 4"-O-(4-Methylthiophenylacetyl)tylosin], the remaining at 1 h in data set [1] was 84%.

In the case of `CCC1OC(=O)CC(O)C(C)C(OC2OC(C)C(OC3CC(C)(O)C(OC(=O)Cc4ccccc4F)C(C)O3)C(N(C)C)C2O)C(CC=O)CC(C)C(=O)C=CC(C)=CC1COC1OC(C)C(O)C(OC)C1OC` (stereo not shown) [Compound 9, 4"-O-(2-Fluorophenylacetyl)tylosin], the remaining at 1 h in data set [1] came to 95%.

In the case of `CCC1OC(=O)CC(O)C(C)C(OC2OC(C)C(OC3CC(C)(O)C(OS(=O)(=O)Cc4ccc(F)cc4)C(C)O3)C(N(C)C)C2O)C(CC=O)CC(C)C(=O)C=CC(C)=CC1COC1OC(C)C(O)C(OC)C1OC` (stereo not shown) [Compound 7, 4"-O-(4-Fluorobenzylsulfonyl)tylosin], in data set [1], the remaining at 1 h was less than 95%.

For the compound `CCC1OC(=O)CC(O)C(C)C(OC2OC(C)C(OC3CC(C)(O)C(OC(=O)Cc4ccc(S(C)(=O)=O)cc4)C(C)O3)C(N(C)C)C2O)C(CC=O)CC(C)C(=O)C=CC(C)=CC1COC1OC(C)C(O)C(OC)C1OC` (stereo not shown) [Compound 1, 4"-O-(4-Methylsulfonylphenylacetyl)tylosin], the remaining at 1 h in data set [1] is 89%.

Turning to `CCC1OC(=O)CC(O)C(C)C(OC2OC(C)C(OC3CC(C)(O)C(OC(=O)CSc4ccccc4)C(C)O3)C(N(C)C)C2O)C(CC=O)CC(C)C(=O)C=CC(C)=CC1COC1OC(C)C(O)C(OC)C1OC` (stereo not shown) [Control 2, 4"-O-phenylthioacetyltylosin], the remaining at 1 h in data set [1] turned out to be 0%. For the same compound, in data set [2], the “result in experiment of treatment for infectious diseases of mice (in words)” value was “merely unsatisfactory results”. In addition, the “hydrolysis by esterase (in words)” value in data set [3] is recorded as “completely hydrolyzed by esterase”. In data set [4], the “antibacterial activity (in words)” value is recorded as “high antibacterial activity in vitro”. The “effectiveness against macrolide-resistant bacteria (in words)” value in data set [5] is given as “most effective tylosin derivative against macrolide-resistant bacteria”.

With `CCC1OC(=O)CC(O)C(C)C(OC2OC(C)C(OC3CC(C)(O)C(OS(=O)(=O)Cc4ccccc4)C(C)O3)C(N(C)C)C2O)C(CC=O)CC(C)C(=O)C=CC(C)=CC1COC1OC(C)C(O)C(OC)C1OC` (stereo not shown) [Control 4, reference compound], in data set [1], the remaining at 1 h is 0%.

On to `CCC1OC(=O)CC(O)C(C)C(OC2OC(C)C(OC3CC(C)(O)C(OC(=O)Cc4ccc(C(=O)c5ccccc5)cc4)C(C)O3)C(N(C)C)C2O)C(CC=O)CC(C)C(=O)C=CC(C)=CC1COC1OC(C)C(O)C(OC)C1OC` (stereo not shown) [Compound 4, 4"-O-(4-Benzoylphenylacetyl)tylosin], for which the remaining at 1 h in data set [1] is 82%.

`CCC1OC(=O)CC(O)C(C)C(OC2OC(C)C(OC3CC(C)(O)C(OC(=O)Cc4ccc(F)cc4)C(C)O3)C(N(C)C)C2O)C(CC=O)CC(C)C(=O)C=CC(C)=CC1COC1OC(C)C(O)C(OC)C1OC` (stereo not shown) [Compound 6, 4"-O-(4-Fluorophenylacetyl)tylosin]: in data set [1], the remaining at 1 h was 95%.

With `CCC1OC(=O)CC(O)C(C)C(OC2OC(C)C(OC3CC(C)(O)C(OC(=O)Cc4ccccc4)C(C)O3)C(N(C)C)C2O)C(CC=O)CC(C)C(=O)C=CC(C)=CC1COC1OC(C)C(O)C(OC)C1OC` (stereo not shown) [Control 1, reference compound], the “stability against liver homogenate (in words)” value in data set [1] (liver homogenate of mice) is “good result”. Besides, in data set [6], the “antibacterial activity against resistant bacteria (in words)” value is on record as “poor in antibacterial activity against resistant bacteria”.

Take `CCC1OC(=O)CC(OC(C)=O)C(C)C(OC2OC(C)C(OC3CC(C)(O)C(OC(=O)Cc4ccc(C(C)=O)cc4)C(C)O3)C(N(C)C)C2O)C(CC=O)CC(C)C(=O)C=CC(C)=CC1COC1OC(C)C(O)C(OC)C1OC` (stereo not shown) [Compound 10, 3-O-acetyl-4"-O-(4-acetylphenylacetyl)tylosin]: the remaining at 1 h in data set [1] was less than 95%.

Regarding `CCC1OC(=O)CC(O)C(C)C(OC2OC(C)C(OC3CC(C)(O)C(OC(=O)Cc4ccc(OC)cc4)C(C)O3)C(N(C)C)C2O)C(CC=O)CC(C)C(=O)C=CC(C)=CC1COC1OC(C)C(O)C(OC)C1OC` (stereo not shown) [Compound 5, 4"-O-(4-Methoxyphenylacetyl)tylosin], the remaining at 1 h in data set [1] was 94%.
